Entries after “also recorded” stand apart in the source; their conditions may differ.
Tests used:
[1] = test system: APP/PS1 model of AD; conditions: cited from earlier work
[2] = test system: clusterin expression in the corpus callosum; assay: Cuprizone model of demyelination, clusterin immunofluorescence in the corpus callosum; type: in vivo; conditions: 5 weeks cuprizone diet then 1 week normal chow vs naïve mouse
Text: FIG. 9A is a photomicrograph showing clusterin expression (white) in the corpus callosum of a naïve mouse and a mouse following 5-weeks of cuprizone diet followed by 1-week of normal chow to allow remyelination to begin. FIG. 9B is a bar graph showing quantification of clusterin coverage of the corpus callosum depicted in FIG. 9A. N=1 independent experiment, n=5 mice per group. Data analyzed using an unpaired t-test. ***p<0.001. Error bars represent standard error of the mean.
Based on preliminary data, it is anticipated that genetic and the therapeutic silencing of clusterin ameliorate the pathology observed in the 5×FAD mice. If a difference in the number of oligodendrocytes and myelination is undetected, the 5×FAD are tested with the cuprizone model of demyelination. Diet supplemented with cuprizone (5 weeks at 0.3% w/w) induces extensive demyelination of the medial corpus callosum (Doucette et al., 2010). However, demyelination induced in this manner is reversible, as remyelination occurs following the removal of the drug. […] Sections of the medial corpus callosum (midline region above the for mix and between the lateral ventricles) are stained as proposed herein above to quantify OPCs and oligodendrocytes at the end of cuprizone treatment as well as 0.5, 1, 1.5, and 2 weeks following the removal of cuprizone, as described (see Fernandez-Castaneda et al., 2020).

[3] = test system: clusterin expression in OPCs; assay: Clusterin expression in treated primary OPCs by qPCR; type: cell-based, mouse; conditions: for effect of phagocytosis block on clusterin upregulation by myelin debris or apoptotic cells in OPCs: Cytochalasin D 1 μM with 100 μg/ml myelin debris; for clusterin expression in OPCs by qPCR (FIG. 7): 10 ng/ml TNFα 3 h, 10 μM H2O2 3 h, 3 μM Aβ 2 h, apoptotic cells 1:1 6 h, 100 μg/ml myelin debris 4 h; for clusterin expression in OPCs by qPCR (FIG. 12): 4-hour in vitro treatment: 3 μM Aβ, 100 μg/ml myelin, 10 ng/ml TNFα or IFNγ, 10 μM H2O2
Experimental: FIGS. 7A-7F: Macromolecules and protein aggregates cause OPCs to upregulate clusterin. OPCs treated with 10 ng/ml TNFα for 3 hours (FIG. 7A), 10 μM H2O2 for 3 hours (FIG. 7B), 3 μM […] for 2 hours (FIG. 7C), a 1:1 ratio of apoptotic cells for 6 hours (FIG. 7D), 100 μg/ml myelin debris for 4 hours (FIG. 7E), or 100 μg/ml myelin debris and 1 μM Cytochalasin D for 4 hours (FIG. 7F). Clusterin transcript quantity was measured using qPCR. N=1-2 independent experiments. n=4-8 samples/condition. All data was analyzed using a repeated measures t-test. ns: not significant; CytoD: Cytochalasin D. *p<0.05, **p<0.01.
FIGS. 12A-12I: Phagocytosis of extracellular debris drives clusterin expression in OPCs. FIG. 12A. Representative images of OPCs (PDGFRα in green, Olig2 in red) surrounding Aβ plaques (n=4; Scale bar=20 μm). FIG. 12B. Representative orthogonal view of CypHer-labeled Aβ (white) inside an OPC (PDGFRα in green. Olig2 in red) following injection of Aβ (n=6; Scale bar=10 μm). Representative images (FIG. 12C) and quantification (FIG. 12D) of clusterin expression (red) in the ipsilateral (CypHer-Aβ injected: green) and contralateral (FITC injected; green) hemispheres following injection (n=6 mice: Scale bar=100 μm) FIG. 12E. qPCR analysis of clusterin expression in OPCs following a 4-hour in vitro treatment with 3 μM Aβ and the phagocytosis blocker CytoD (1 μM) or vehicle control (n=24). f, Quantification of clusterin protein in OPCs following 72-hour treatment with 3 μM Aβ or vehicle control (n=10). qPCR analysis of clusterin expression in OPCs following a 4-hour in vitro treatment with 100 μg/ml myelin (FIG. 12G), cytokines (10 ng/ml TNFα or 10 ng/ml IFNγ; FIG. 12H) or 10 μM H2O2 (FIG. 12I) and CytoD (1 μM) or vehicle control (n=4-19).
Oligomeric […] Drives Expression of Clusterin in OPCs Given the impact of clusterin on OPCs differentiation in vitro, and the evidence supporting that myelin is impacted in AD (Roher et al., 2002; Desai et al., 2009; Desai et al., 2010; Zhan et al., 2014), we wanted to understand what factors initiate expression of clusterin in OPCs. We treated primary OPCs with TNFa, H2O2, oligomeric Aβ, myelin debris, and apoptotic cells and monitored expression of clusterin by qPCR. These treatments were selected because of their association with AD pathology (Sengupta et al., 2016; Ahmad et al., 2017; Chang et al., 2017). […] In order to test if phagocytosis was required to mediate the upregulation of clusterin, the same experiment was repeated in the presence of Cytochalasin D to block actin polymerization and prevent engulfment (Axline & Reaven, 1974; Soldati & Schliwa, 2006).
We next investigated whether Aβ treatment increases clusterin expression in OPCs. […] We noted that increase in clusterin expression was not specific to the phagocytic clearance of Aβ oligomers, as we also observed it when OPCs engulfed cellular debris.

[4] = test system: OPCs (OLIG2+/PDGFRα+); assay: Tamoxifen-induced YFP labelling of OPCs in PDGFRα-CreER; R26-EYFP reporter mice; type: in vivo, mouse; conditions: 2 tamoxifen injections 3 days apart, counted ten days after the first injection, adult mice
Experimental: FIG. 1A is a representative image of YFP labeled OPCs (PDGFRα+Olig2+) cells following 2 tamoxifen injections. […] FIG. 1B is a graph of percent of OPCs expressing YFP following 0, 1, 2, or 3 tamoxifen injections. Each injection was given 3 days apart. n=2-3 mice/group.
To investigate the optimal dose of tamoxifen required for the reporter expression, we treated adult mice (6 weeks old) with 1, 2, or 3 tamoxifen injections (each injection was administered 3 days apart) and counted the number of YFP positive OPCs (OLIG2+/PDGFRα+) ten days after the first injection (see FIG. 1B).

[5] = test system: clusterin; conditions: patients with prostate cancer, Phase 3 clinical trial; cited from earlier work
[6] = test system: OPCs; assay: OPC differentiation into oligodendrocytes, myelin marker expression by qPCR; type: cell-based, mouse; conditions: differentiating conditions, 3 days
Experimental: (§1) FIGS. 13A-13G: Exogenous clusterin inhibits OPC differentiation. Expression of Mbp (FIG. 13A), Plp1 (FIG. 13B), Cnp (FIG. 13C), and Myrf (FIG. 13D), measured by qPCR in OPCs or OLGs treated with vehicle or 8 μg/ml of clusterin for 72 hours (n=7). Representative images (FIG. 13E) and quantification (FIG. 13F) of MBP expression in cells treated with or without 8 μg/ml of clusterin for 72 hours (n=5: Scale bar=50 μm). FIG. 13G. Quantification of OPCs viability following a 72 hours incubation with or without 8 μg/ml clusterin (n=11).
(§2) FIGS. 14A-14D: Clusterin inhibits differentiation by blocking IL-9 production. FIG. 14A. Quantification of cytokines present in the supernatant from OPCs treated with 8 μg/mL clusterin or vehicle control (n=6). Expression of Mbp (FIG. 14B), Plp1 (FIG. 14C), and Myrf (FIG. 14D), measured by qPCR in OPCs cultured in proliferation media (OPC Vehicle), differentiation media supplemented with vehicle (OLG Vehicle), or 8 μg/ml of is clusterin (OLG CLU), or 100 ng/ml IL-9 (OLG IL-9), or 8 μg/ml of clusterin and 100 ng/ml IL-9 (OLG CLU+IL-9) for 72 hours (n=11).
OPCs were prepared from neurospheres as previously described (Franco et al., 2015) and subsequently switched into differentiating conditions in the presence of recombinant clusterin (8 μg/ml) or vehicle (PBS) for 3 days. […]

[7] = test system: OPCs; assay: OPC differentiation, MBP positive oligolineage cells by immunofluorescence; type: cell-based, mouse; conditions: clusterin 8 μg/ml, 72 hours, differentiation media
Experimental: (§3) FIGS. 6A-6D: Clusterin inhibits OPC differentiation. FIG. 6A is a series of bar graphs showing expression of Mbp, Pip1, Cnp, and Myrf, measured by qPCR in cells cultured in proliferation media (OPC_Veh), differentiation media (OLG_Veh), or differentiation media supplemented with 8 μg/ml of clusterin (OLG_Clu). Data was analyzed using a mixed-effects analysis followed by a Tukey's multiple comparisons test. N=3 individual experiments, n=7 samples per group. FIG. 6B is a series of representative fluorescence micrograph images of cells cultured in differentiation media (Vehicle) or differentiation media supplemented with 8 μg/ml of clusterin (Clusterin). […] FIG. 6C is a bar graph of the quantification of the differentiation efficiency of cells depicted in FIG. 6B. […] Data was is analyzed using a repeated measures t-test. […]
as §1, with “FIG. 13G.” left out, “(n=11). […]” for “(n=11).”

[8] = test system: OPCs; assay: OPC viability, CCK8 assay; type: cell-based, mouse; conditions: clusterin 8 μg/ml, 72 hours
Experimental: as §3
as §1, with “FIG. 13G.” left out, “(n=11). […]” for “(n=11).”

[9] = test system: IL-9 secretion by OPCs; assay: Luminex Assay on the supernatant of OPCs (cytokine and growth factor secretion); type: cell-based, mouse; conditions: clusterin 8 μg/mL vs vehicle
Experimental: as §2
We next investigated what factors might be mediating clusterin's inhibition of OPC differentiation.
To identify whether clusterin can modify the composition of the OPC secretome, an unbiased multiplex analysis on the conditioned media of OPCs treated with vehicle or clusterin for 1-3 days was performed. […] IL-9 is a growth factor for T-cell subsets 64, and IL-9 receptor is expressed by OPCs in vivo. However, production and secretion of IL-9 by OPCs has not been previously reported.

CN1CCC[C@@H]1CCO[C@](C)(c1ccccc1)c1ccc(Cl)cc1 [Clemastine]
myelin integrity and memory performance [1]: improved both myelin integrity and memory performance

O=C(NN=C1CCCCC1)C(=O)NN=C1CCCCC1 [Cuprizone]
clusterin expression in the corpus callosum [2]: upregulated

C=C1[C@@H](C)[C@H]2[C@H](Cc3ccccc3)NC(=O)[C@]23[C@H](OC(C)=O)/C=C/[C@@](C)(O)C(=O)[C@@H](C)C/C=C/[C@H]3[C@@H]1O [Cytochalasin D]
effect of phagocytosis block on Aβ-induced clusterin upregulation in OPCs ([3]; CytoD 1 μM with 3 μM Aβ, 4 hours): prevented Aβ from increasing clusterin production in OPCs | effect of phagocytosis block on clusterin upregulation by myelin debris or apoptotic cells in OPCs ([3]; 4 hours): internalization of the cargo is necessary to mediate the upregulation of clusterin | effect of phagocytosis block on clusterin upregulation by myelin debris or apoptotic cells in OPCs ([3]; 4 hours, listed as CytoD): abrogated

OO [H2O2]
clusterin expression in OPCs by qPCR (FIG. 7) [3]: did not influence clusterin expression | clusterin expression in OPCs by qPCR (FIG. 12) [3]: failed to induce changes in clusterin expression

CC/C(=C(\c1ccccc1)c1ccc(OCCN(C)C)cc1)c1ccccc1 [tamoxifen]
percent of OPCs expressing YFP [4]: 95%

Custirsen: ASO targeting clusterin in Phase 3 clinical trial; OGX-011 is 5-CAGCAGCAGAGTCTTCATCAT-3′ (SEQ ID NO: 11) (listed as DNA, chemistry not given here; listed as Homo sapiens)
levels of clusterin in patients [5]: safely and effectively reduce levels of clusterin

IL-9: interleukin 9 cytokine added exogenously (100 ng/ml) to differentiating OPCs
Expression of Mbp, Plp, and Myrf by qPCR in clusterin-treated OPCs supplemented with IL-9 ([6]; IL-9 100 ng/ml plus clusterin 8 μg/ml): prevented clusterin inhibition; also recorded: restored expression of these mature oligodendrocyte genes to a level similar as the untreated control

TNFα
clusterin expression in OPCs by qPCR (FIG. 7) [3]: did not influence clusterin expression | clusterin expression in OPCs by qPCR (FIG. 12) [3]: failed to induce changes in clusterin expression

clusterin: recombinant clusterin, a secreted chaperone protein, containing an HIS-tag, added exogenously to OPCs
Expression of myelin markers (Mbp, Plp, Cnp, and Myrf) as determined by qPCR ([6]; recombinant clusterin 8 μg/ml vs vehicle (PBS)): decreased; also recorded: striking decrease; also recorded: blocks OPC differentiation | percentage of MBP positive oligolineage cells (immunofluorescence) [7]: decrease; also recorded: fewer MBP-positive oligodendrocytes | OPC viability [8]: did not impact OPC viability; also recorded: not due to OPC death | secretion of growth factors and cytokines by OPCs [9]: altered secretion of multiple proteins | IL-9 secretion by OPCs ([9]; 1-3 days): marked reduction; also recorded: blocked IL-9 release from OPCs

B1: IFNγ: cytokine upregulated in Alzheimer's disease, 10 ng/ml (protein, UniProt P01579 24-161, looked up)
Interferon gamma: QDPYVKEAENLKKYFNAGHSDVADNGTLFLGILKNWKEESDRKIMQSQIVSFYFKLFKNFKDDQSIQKSVETIKEDMNVKFFNSNKKKRDDFEKLTNYSVTDLNVQRKAIHELIQVMAELSPAAKTGKRKRSQMLFRG
clusterin expression in OPCs by qPCR (FIG. 12) [3]: failed to induce changes in clusterin expression
